Assay results as given in patent US20140205537A1, “LRRK2 INHIBITORS” (ZENOBIA THERAPEUTICS, INC., priority 2011, published 2014).
Blank lines part the entries; values can stand above or below the compound they belong to.

Legend:
G2019S LRRK2 = G2019S LRRK2 (Homo sapiens, UniProt Q5S007, G2019S); experiment: G2019S LRRK2 inhibition (Invitrogen SelectScreen / TR-FRET biochemical assay); parameters: The protein construct used in the assay is GST tagged 969-2527; GST; purchased Invitrogen; settings: for IC50: numeric value
Experimental: IC50s were determined using Invitrogen's SelectScreen® Profiling Service for wild type and LRRK2 G2019S. The test compounds were screened in 1% DMSO (final) in the well.
a) % inhibition is measured at one concentration
b) a 10-point titration is run to ensure the kinase is inhibited within an expected IC50 range
Biochemical Assay Protocol:
Compound potency against wild-type and G2019S LRRK2 is measured via TR-FRET. The IC50, the amount of inhibitor required to inhibitor 50% of the protein under the given assay conditions, is determined by varying the amount of compound (500-0.001 uM) by serial dilution with 12-data points per compound, in duplicate. The substrate (Fluorescein-GAGRLGRDKYKTLRQIRQ) and ATP is fixed at 0.8 uM and 57 uM (KmATP), respectively. All assays are run in Corning low volume […] round bottomed plates. The assay is run in 50 mM Tris-HCl pH8.5, 10 mM MgCl2, 0.01% Brij-35, 1 mM EGTA, 2 mMDTT. The TR-FRET assay is an end-point assay where the reaction with protein, substrate, inhibitor and ATP is incubated for 1 hour at room temperature. The compound is pre-incubated with the protein and substrate prior to initiating the reaction with ATP. Phospho-transfer is detected using a Terbium labeled anti-pLRRKtide that binds to phosphorylated substrate creating FRET transfer when excited at 340 nm. Emissions signals are taken for terbium and FRET induced fluorescein at 495 nm and 520 nm, respectively, using a Biotek Synergy 2 spectrophotometer. The dose response is determined by plotting the emission ratio of 520/495 against the log of the inhibitor concentration. The maximum inhibition and non-inhibition controls is run on all plates. Staurosporine is used as the positive inhibition control and DMSO is used as the negative point control. A 12-point dose curve of Staurosporine is run as a dosing control. The IC50 is determined to be the inhibitor concentration at which 50% inhibition is achieved. The protein construct used in the assay is GST tagged 969-2527. The protein is commercially available from Invitrogen.
Alternatively, compounds of formulas (II), (I), (I-A), (I-B), (I-C), (I-D), (I-D-1), (I-D-2), (I-E), (I-F), (I-G), (I-H), (I-I), (I-I-1), (I-I-2), (I-J), (I-K), (I-L), (I-M), (I-N), (I-Z-1), (I-Z-2), (I-Z-2-a), (I-Z-2-b), (I-Z-2-c), (I-Z-2-d), (I-Z-3-a), (I-Z-3-b), (I-Z-3-c), or (I-Z-3-d) were tested using Invitrogen's SelectScreen® Profiling Service for LRRK2 G2019S.

ABL1 = ABL1 (Homo sapiens, UniProt P00519); experiment: Kinase selectivity panel: ABL1; format: biochemical
AURKA = target: T1, AURKA (Homo sapiens, UniProt O14965); experiment: Kinase selectivity panel: AURKA; format: biochemical
T1 sequence (O14965 1-403): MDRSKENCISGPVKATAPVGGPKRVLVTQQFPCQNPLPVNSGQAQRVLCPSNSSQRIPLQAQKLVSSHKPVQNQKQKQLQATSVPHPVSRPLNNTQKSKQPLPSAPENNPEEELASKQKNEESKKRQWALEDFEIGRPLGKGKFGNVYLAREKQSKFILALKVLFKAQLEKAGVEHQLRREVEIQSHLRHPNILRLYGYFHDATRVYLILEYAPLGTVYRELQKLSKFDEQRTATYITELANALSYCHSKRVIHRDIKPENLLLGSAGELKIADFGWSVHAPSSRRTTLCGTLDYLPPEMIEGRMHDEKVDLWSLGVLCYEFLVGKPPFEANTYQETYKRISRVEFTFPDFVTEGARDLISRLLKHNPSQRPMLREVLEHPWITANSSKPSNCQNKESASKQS

CAMK2D = CAMK2D (Homo sapiens, UniProt Q13557); experiment: Kinase selectivity panel: CAMK2D; format: biochemical
CDK5/p35 = CDK5/p35 (Homo sapiens, UniProt Q00535); experiment: Kinase selectivity panel: CDK5/p35; format: biochemical
CHEK1 = target: T2, CHEK1 (Homo sapiens, UniProt O14757); experiment: Kinase selectivity panel: CHEK1; format: biochemical
T2 sequence (O14757 1-476): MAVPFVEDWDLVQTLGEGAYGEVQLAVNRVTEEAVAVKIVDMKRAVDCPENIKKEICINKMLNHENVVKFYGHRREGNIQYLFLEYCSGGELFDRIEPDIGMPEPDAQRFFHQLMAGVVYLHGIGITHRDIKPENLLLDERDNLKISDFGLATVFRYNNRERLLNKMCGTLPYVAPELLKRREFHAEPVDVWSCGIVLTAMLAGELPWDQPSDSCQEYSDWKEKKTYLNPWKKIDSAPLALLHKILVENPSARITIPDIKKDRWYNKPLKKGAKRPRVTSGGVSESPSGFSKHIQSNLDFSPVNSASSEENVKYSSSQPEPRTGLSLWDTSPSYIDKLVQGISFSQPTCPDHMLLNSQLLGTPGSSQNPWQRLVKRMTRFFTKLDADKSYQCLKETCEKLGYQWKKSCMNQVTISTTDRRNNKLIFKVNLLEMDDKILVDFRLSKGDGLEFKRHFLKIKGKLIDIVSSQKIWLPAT

IRAK4 = target: T3, IRAK4 (Homo sapiens, UniProt Q9NWZ3); experiment: Kinase selectivity panel: IRAK4; format: biochemical
T3 sequence (Q9NWZ3 1-460): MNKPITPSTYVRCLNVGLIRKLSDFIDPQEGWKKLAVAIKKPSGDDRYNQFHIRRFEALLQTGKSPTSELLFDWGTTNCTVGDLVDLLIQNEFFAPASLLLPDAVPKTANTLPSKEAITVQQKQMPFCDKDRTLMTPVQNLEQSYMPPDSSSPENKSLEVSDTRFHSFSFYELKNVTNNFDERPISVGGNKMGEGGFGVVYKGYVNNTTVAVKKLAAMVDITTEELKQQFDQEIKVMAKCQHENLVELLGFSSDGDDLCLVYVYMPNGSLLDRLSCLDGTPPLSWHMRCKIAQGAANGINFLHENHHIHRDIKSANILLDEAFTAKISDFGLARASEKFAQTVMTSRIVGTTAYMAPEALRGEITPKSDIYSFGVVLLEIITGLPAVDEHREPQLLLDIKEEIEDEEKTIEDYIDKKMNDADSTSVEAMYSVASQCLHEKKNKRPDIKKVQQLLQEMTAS

MARK2 = MARK2 (Homo sapiens, UniProt Q7KZI7); experiment: Kinase selectivity panel: MARK2; format: biochemical
Chain of MARK2 (Q7KZI7 whole entry, species assumed): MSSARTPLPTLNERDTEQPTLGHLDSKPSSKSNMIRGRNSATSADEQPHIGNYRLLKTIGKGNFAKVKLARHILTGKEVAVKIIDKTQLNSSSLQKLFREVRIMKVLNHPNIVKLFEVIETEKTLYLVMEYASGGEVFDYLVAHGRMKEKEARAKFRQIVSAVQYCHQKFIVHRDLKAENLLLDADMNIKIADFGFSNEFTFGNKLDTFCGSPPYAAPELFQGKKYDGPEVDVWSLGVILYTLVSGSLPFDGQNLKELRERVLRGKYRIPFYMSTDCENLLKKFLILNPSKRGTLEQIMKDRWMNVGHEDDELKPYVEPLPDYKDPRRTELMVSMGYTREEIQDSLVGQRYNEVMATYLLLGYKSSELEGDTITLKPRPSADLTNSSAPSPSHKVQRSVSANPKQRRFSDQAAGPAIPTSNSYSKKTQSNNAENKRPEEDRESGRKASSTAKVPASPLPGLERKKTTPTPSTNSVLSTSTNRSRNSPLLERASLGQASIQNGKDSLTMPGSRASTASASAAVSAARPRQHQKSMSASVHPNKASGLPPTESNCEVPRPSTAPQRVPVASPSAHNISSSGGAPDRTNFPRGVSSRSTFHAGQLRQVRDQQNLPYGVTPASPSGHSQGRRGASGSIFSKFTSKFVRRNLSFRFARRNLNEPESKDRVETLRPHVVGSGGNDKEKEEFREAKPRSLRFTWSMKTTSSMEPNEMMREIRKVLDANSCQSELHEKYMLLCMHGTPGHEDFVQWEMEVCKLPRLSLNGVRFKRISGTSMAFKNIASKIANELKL

Chain of G2019S LRRK2 (Q5S007 969-2527 G2019S): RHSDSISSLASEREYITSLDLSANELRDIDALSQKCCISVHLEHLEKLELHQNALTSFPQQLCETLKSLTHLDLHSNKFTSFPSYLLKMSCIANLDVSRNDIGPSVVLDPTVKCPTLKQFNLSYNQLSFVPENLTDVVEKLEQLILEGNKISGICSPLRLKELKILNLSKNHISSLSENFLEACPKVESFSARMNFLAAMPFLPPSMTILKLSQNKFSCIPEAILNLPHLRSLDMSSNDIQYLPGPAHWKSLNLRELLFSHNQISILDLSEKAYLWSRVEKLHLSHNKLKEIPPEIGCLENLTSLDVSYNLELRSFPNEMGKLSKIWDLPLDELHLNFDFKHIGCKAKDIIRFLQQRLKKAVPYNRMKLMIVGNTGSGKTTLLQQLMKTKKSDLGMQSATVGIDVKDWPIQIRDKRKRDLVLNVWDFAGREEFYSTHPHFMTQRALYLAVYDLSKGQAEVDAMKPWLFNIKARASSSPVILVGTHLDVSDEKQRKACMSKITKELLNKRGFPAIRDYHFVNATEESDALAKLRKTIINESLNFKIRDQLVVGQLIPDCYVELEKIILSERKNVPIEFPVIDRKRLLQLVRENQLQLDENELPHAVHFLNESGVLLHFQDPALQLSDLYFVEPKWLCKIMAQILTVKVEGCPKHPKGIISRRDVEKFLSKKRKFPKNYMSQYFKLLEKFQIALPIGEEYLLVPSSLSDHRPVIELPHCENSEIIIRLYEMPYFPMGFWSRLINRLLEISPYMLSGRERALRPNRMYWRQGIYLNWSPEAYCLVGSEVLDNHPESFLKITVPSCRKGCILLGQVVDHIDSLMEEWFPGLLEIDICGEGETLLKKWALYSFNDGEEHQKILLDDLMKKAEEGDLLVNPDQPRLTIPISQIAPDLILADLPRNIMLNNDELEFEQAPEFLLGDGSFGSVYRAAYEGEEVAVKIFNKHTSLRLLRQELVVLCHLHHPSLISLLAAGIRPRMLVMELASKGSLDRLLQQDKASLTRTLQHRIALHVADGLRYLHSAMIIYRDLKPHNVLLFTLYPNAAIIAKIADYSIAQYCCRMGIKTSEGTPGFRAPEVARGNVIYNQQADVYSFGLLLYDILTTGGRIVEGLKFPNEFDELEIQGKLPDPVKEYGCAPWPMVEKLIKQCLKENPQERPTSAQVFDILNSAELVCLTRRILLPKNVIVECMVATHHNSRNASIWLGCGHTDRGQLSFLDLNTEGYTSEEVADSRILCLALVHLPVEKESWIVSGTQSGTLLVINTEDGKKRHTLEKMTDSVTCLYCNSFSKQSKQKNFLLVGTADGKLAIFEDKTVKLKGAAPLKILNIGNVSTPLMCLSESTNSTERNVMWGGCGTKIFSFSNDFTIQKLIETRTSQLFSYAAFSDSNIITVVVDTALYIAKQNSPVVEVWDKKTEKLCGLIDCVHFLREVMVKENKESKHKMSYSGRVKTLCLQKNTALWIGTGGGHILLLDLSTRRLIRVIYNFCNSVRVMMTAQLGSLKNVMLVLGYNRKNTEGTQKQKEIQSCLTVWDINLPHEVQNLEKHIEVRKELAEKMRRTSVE
Chain of CDK5/p35 (Q00535 whole entry, species assumed): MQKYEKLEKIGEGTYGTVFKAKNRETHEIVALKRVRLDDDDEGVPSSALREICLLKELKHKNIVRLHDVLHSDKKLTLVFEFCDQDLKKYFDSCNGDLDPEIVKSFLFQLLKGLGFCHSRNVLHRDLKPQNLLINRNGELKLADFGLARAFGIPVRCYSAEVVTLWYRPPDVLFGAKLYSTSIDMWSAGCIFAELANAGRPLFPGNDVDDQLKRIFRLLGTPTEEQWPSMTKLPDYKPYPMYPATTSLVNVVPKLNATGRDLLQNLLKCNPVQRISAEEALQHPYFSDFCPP
Chain of CDK5/p35 (Q15078 whole entry partner, species assumed): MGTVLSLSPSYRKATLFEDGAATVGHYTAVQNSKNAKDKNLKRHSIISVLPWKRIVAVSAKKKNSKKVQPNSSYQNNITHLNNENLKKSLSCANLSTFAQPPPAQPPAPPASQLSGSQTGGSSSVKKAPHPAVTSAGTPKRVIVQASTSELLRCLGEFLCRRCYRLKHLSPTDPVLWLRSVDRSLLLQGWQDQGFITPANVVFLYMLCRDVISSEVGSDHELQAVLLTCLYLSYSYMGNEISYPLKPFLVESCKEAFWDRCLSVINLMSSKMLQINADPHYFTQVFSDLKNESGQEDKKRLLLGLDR
Chain of CAMK2D (Q13557 whole entry, species assumed): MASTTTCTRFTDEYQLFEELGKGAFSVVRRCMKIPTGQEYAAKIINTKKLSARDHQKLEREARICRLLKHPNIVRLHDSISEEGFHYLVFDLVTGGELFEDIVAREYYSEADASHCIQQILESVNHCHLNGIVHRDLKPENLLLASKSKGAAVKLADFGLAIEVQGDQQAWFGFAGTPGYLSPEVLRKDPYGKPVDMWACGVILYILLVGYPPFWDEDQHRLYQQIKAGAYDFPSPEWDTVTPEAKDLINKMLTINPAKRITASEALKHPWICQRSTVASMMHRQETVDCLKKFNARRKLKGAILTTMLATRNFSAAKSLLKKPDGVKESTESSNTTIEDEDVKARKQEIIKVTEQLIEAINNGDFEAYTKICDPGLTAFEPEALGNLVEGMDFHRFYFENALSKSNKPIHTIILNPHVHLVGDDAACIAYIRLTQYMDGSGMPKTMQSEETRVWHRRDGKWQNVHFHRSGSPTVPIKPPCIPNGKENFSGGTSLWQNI
Chain of ABL1 (P00519 whole entry, species assumed): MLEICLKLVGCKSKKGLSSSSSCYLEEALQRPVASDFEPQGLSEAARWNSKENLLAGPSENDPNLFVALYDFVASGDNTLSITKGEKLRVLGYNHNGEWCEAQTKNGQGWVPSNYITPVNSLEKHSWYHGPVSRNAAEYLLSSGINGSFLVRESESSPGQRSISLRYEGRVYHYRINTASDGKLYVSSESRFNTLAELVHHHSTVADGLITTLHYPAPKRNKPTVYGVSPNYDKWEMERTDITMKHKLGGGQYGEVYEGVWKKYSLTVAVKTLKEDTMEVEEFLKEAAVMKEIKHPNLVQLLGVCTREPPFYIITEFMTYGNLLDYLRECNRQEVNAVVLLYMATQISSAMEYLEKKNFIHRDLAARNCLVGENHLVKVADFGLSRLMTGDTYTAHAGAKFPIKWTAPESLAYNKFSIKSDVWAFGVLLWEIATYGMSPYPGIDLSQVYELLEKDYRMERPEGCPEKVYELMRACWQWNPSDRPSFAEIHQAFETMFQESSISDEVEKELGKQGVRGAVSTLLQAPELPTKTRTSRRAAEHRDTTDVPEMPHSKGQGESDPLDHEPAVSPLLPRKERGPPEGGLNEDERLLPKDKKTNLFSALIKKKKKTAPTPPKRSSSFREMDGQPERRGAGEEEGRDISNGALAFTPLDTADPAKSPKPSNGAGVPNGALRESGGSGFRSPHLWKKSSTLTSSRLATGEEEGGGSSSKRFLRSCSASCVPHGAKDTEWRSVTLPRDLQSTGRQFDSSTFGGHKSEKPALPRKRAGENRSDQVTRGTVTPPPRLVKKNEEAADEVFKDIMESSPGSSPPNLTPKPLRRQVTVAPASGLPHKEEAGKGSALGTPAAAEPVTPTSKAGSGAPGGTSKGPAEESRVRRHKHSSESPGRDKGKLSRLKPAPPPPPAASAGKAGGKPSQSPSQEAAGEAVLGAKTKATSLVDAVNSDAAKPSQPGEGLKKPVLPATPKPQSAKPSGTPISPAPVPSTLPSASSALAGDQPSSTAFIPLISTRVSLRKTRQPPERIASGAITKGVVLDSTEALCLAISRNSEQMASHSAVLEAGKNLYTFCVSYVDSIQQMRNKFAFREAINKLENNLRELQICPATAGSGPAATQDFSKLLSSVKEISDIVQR

SMILES: O=C1Nc2ccccc2/C1=C\c1cnc2ccccc2c1 [Compound 8, (3E)-3-(3-quinolylmethylene)indolin-2-one]
IC50 (G2019S LRRK2): 872 nM

SMILES: COc1ccc2c(c1)NC(=O)/C2=C\c1cnc(C)[nH]1 [Compound 6, (3Z)-6-methoxy-3-[(2-methyl-1H-imidazol-5-yl)methylene]indolin-2-one]
IC50 (G2019S LRRK2): 127 nM

SMILES: O=C1Nc2ccccc2/C1=C/c1cc2cccnc2[nH]1 [Compound 5, (3Z)-3-(1H-pyrrolo[2,3-b]pyridin-2-ylmethylene)indolin-2-one]
inhibition at 10 µM (G2019S LRRK2): 30%

SMILES: O=C1Nc2ccccc2/C1=C\c1nc2ccccc2s1 [Compound 7, (3E)-3-(1,3-benzothiazol-2-ylmethylene)indolin-2-one]
inhibition at 0.1 µM (G2019S LRRK2): -5%

SMILES: Cc1ncc(/C=C2\C(=O)Nc3ccc(S(C)(=O)=O)cc32)[nH]1 [Compound 15, (3Z)-3-[(2-methyl-1H-imidazol-5-yl)methylene]-5-methylsulfonyl-indolin-2-one]
IC50 (G2019S LRRK2): 125 nM

SMILES: Cc1cnc(/C=C2\C(=O)Nc3ccccc32)[nH]1 [Compound 2, (3Z)-3-[(5-methyl-1H-imidazol-2-yl)methylene]indolin-2-one]
IC50 (G2019S LRRK2): 181 nM

SMILES: O=C1Nc2ccccc2/C1=C\c1nc2ccccc2o1 [Compound 9, (3E)-3-(1,3-benzoxazol-2-ylmethylene)indolin-2-one]
inhibition at 10 µM (G2019S LRRK2): 11%

SMILES: Cc1cc(/C=C2\C(=O)Nc3ccccc32)[nH]n1 [Compound 1, (3Z)-3-[(3-methyl-1H-pyrazol-5-yl)methylene]indolin-2-one]
inhibition at 0.1 µM (G2019S LRRK2): 22%

Results, then the compound that gave them:

IC50 (G2019S LRRK2): 38.7 nM
SMILES: COCc1ncc(/C=C2\C(=O)Nc3ccc(OC)cc32)[nH]1 [Compound 17, (3Z)-5-methoxy-3-[[2-(methoxymethyl)-1H-imidazol-5-yl]methylene]indolin-2-one]

IC50 (ABL1): > 10000 nM
IC50 (AURKA): > 10000 nM
IC50 (CAMK2D): 1470 nM
IC50 (CDK5/p35): > 10000 nM
IC50 (CHEK1): > 10000 nM
IC50 (IRAK4): > 10000 nM
IC50 (MARK2): > 10000 nM
IC50 (G2019S LRRK2): 43.9 nM
SMILES: COc1ccc2c(c1)/C(=C/c1cnc(C(C)(C)C)[nH]1)C(=O)N2 [Compound 19, (3Z)-3-[(2-tert-butyl-1H-imidazol-5-yl)methylene]-5-methoxy-indolin-2-one]

IC50 (G2019S LRRK2): 3.5 nM
SMILES: CCc1ncc(/C=C2\C(=O)Nc3ccc(OC)cc32)[nH]1 [Compound 16, (3Z)-3-[(2-ethyl-1H-imidazol-5-yl)methylene]-5-methoxy-indolin-2-one]

IC50 (ABL1): > 10000 nM
IC50 (AURKA): 5260 nM
IC50 (CAMK2D): 275 nM
IC50 (CDK5/p35): > 10000 nM
IC50 (CHEK1): > 10000 nM
IC50 (IRAK4): 3440 nM
IC50 (MARK2): 1840 nM
IC50 (G2019S LRRK2): 7.6 nM
SMILES: COc1ccc2c(c1)/C(=C/c1cnc(C(C)C)[nH]1)C(=O)N2 [Compound 12, (3Z)-3-[(2-isopropyl-1H-imidazol-5-yl)methylene]-5-methoxy-indolin-2-one]

IC50 (G2019S LRRK2): 16.4 nM
SMILES: Cc1ncc(/C=C2\C(=O)Nc3ccc(Cl)cc32)[nH]1 [Compound 10, (3Z)-5-chloro-3-[(2-methyl-1H-imidazol-5-yl)methylene]indolin-2-one]

IC50 (G2019S LRRK2): 6.9 nM
SMILES: COc1ccc2c(c1)/C(=C/c1cnc(C)[nH]1)C(=O)N2 [Compound 4, (3Z)-5-methoxy-3-[(2-methyl-1H-imidazol-5-yl)methylene]indolin-2-one]

IC50 (G2019S LRRK2): 41.2 nM
SMILES: Cc1ncc(/C=C2\C(=O)Nc3ccc(OC(F)(F)F)cc32)[nH]1 [Compound 11, (3Z)-3-[(2-methyl-1H-imidazol-5-yl)methylene]-5-(trifluoromethoxy)indolin-2-one]

IC50 (G2019S LRRK2): 38 nM
SMILES: Cc1ncc(/C=C2\C(=O)Nc3ccc(F)cc32)[nH]1 [Compound 3, (3Z)-5-fluoro-3-[(2-methyl-1H-imidazol-5-yl)methylene]indolin-2-one]

IC50 (ABL1): 860 nM
IC50 (AURKA): 50 nM
IC50 (CAMK2D): 615 nM
IC50 (CDK5/p35): 258 nM
IC50 (CHEK1): 999 nM
IC50 (IRAK4): 655 nM
IC50 (MARK2): 434 nM
IC50 (G2019S LRRK2): 1.2 nM
SMILES: Cc1ncc(/C=C2\C(=O)Nc3ccc(OC(C)C)cc32)[nH]1 [Compound 14, (3Z)-5-isopropoxy-3-[(2-methyl-1H-imidazol-5-yl)methylene]indolin-2-one]

IC50 (G2019S LRRK2): 3.1 nM
SMILES: CCOc1ccc2c(c1)/C(=C/c1cnc(C)[nH]1)C(=O)N2 [Compound 13, (3Z)-5-ethoxy-3-[(2-methyl-1H-imidazol-5-yl)methylene]indolin-2-one]
